Laboratory results published in US20250282785A1, “PYRROLIDINONE DERIVATIVES AS INHIBITORS OF NF KAPPA B INDUCING KINASE” (priority 2022, published 2025).

Columns and labels:
[1] = target: Recombinant Human NF-Kappab-Inducing Kinase (NIK/MAP3K14) (Homo sapiens, UniProt Q99558); experiment: Inhibition of auto-phosphorylation of recombinant human NIK/MAP3K14 (AlphaScreen); assay type: biochemical; conditions: NIK/MAP3K14 auto-phosphorylation, 5 microM ATP, 1 nM enzyme, 2 h at 25° C.; average of values; read-out: Assay 1 IC50
Method: Biological Assay 1: Inhibition of Auto-Phosphorylation of Recombinant Human NF-Kappab-Inducing Kinase (NIK/MAP3K14) Activity (AlphaScreen®)
NIK/MAP3K14 auto-phosphorylation activity was measured using the AlphaScreen® ((αscreen) format (Perkin ElmeR). All compounds tested were dissolved in dimethyl sulfoxide (DMSO) and further dilutions were made in assay buffer. Final DMSO concentration was 0.7% (v/v) in assays. Assay buffer was 50 mM Tris pH 7.5 containing 1 mM EGTA (ethylene glycol tetraacetic acid), 1 mM DTT (dithiothreitol), 0.1 mM Na3VO4, 5 mM MgCl2, 0.01% Tween® 20. Assays were carried out in 384 well Proxiplates (Perkin ElmeR). Incubations consisted of compound, 5 microM Adenosine-5′-triphosphate (ATP), and 1 nM NIK/MAP3K14. Incubations were initiated by addition of GST-tagged NIK/MAP3K14 enzyme, carried out for 2 h at 25° C. and terminated by addition of stop buffer containing anti-phospho-IKK Ser176/180 antibody. Protein A Acceptor and Glutathione-donor beads were added before reading using an EnVision® Multilabel Plate Reader (Perkin ElmeR). Signal obtained in the wells was normalized using high (full enzyme activity, 0.7% DMSO) and low controls (no enzyme activity, 0.7% DMSO, no ATP). IC50's were determined by fitting a sigmoidal curve to % inhibition of control versus Log10 compound concentration.

[2] = tested on: p-IKKα levels in L363 (NIK translocated multiple myeloma) cells; experiment: Effect of compounds on p-IKKα levels in L363 cells (AlphaLISA SureFire Ultra); assay type: cell-based; conditions: Homo sapiens, L-363; L363 cells, BAFF stimulated, MG132, 6 h; average of values; read-out: Assay 2 IC50
Method: Biological Assay 2: Effect of Compounds on p-IKKα Levels in L363 (NIK Translocated Multiple Myeloma) Cells
All compounds tested were dissolved and serially diluted in DMSO, 1:3 dilution for 11 points in an Echo compatible plate. 100% DMSO is added to columns 12 and 24 of the plate to serve as high and low signal controls. This compound plate was used to spot 20 nl of compound or DMSO into a Greiner 384 well TC plate (781080). Final DMSO concentration was […] (v/v) in cell assays. Human L363 cells (ATCC) were cultured in RPMI 1640 medium supplemented with GlutaMax, non-essential amino acids, sodium pyruvate and 10% fetal bovine serum. Cells were routinely maintained at densities of 0.2×10^6 cells per ml −2×10^6 cells per ml at 37° C. in a humidified 5% CO2 atmosphere incubator. Cells were passaged twice a week splitting back to obtain the low density. The day before the assay, cells were washed twice in HBSS, resuspended in DMEM+0.5% IgG and protease free BSA (Jackson Immuno Research Laboratories), +/−250 ng/ml recombinant human B-cell activating factor (BAFF/BLyS/TNFSF13B) and incubated overnight at 37° C. in a humidified 5% CO2 atmosphere (bulk stimulation with or without BAFF). The next day, cell concentration was adjusted to 1×10^7 cells/ml in DMEM+/−250 ng/ml BAFF+/−10 uM MG132 and plated at 10 ul/well into compound or DMSO spotted 384 well TC plates. Seeded cells were incubated at 37° C. in a humidified 5% CO2 atmosphere for 6 h. After 6 h, plates were removed from the incubator and cell lysis was achieved by the addition of 2.5 μl 5× lysis buffer containing protease and phosphatase inhibitors, followed by shaking on a plate shaker at room temperature for 15 min. At the end of this incubation, lysed cells were sequentially treated and incubated with acceptor and donor bead mixes according to the manufacturer's protocol for a 1 plate/2-incubation suspension cell assay (AlphaLISA SureFire Ultra p-IKKα (Ser 176/180) Assay Kit (Perkin ElmeR). Plates were read using an EnVision® Multilabel Plate Reader (Perkin ElmeR). Within an experiment, a concentration response curve for each compound was run in duplicate. Signal obtained in the test wells was normalized using high signal (BAFF stimulated cells, DMSO, MG132) and low signal (unstimulated cells, DMSO) controls. To determine the IC50, a sigmoidal curve was fitted to the plot of % inhibition versus Log10 compound concentration.

Chain of Recombinant Human NF-Kappab-Inducing Kinase (NIK/MAP3K14) (Q99558 whole entry): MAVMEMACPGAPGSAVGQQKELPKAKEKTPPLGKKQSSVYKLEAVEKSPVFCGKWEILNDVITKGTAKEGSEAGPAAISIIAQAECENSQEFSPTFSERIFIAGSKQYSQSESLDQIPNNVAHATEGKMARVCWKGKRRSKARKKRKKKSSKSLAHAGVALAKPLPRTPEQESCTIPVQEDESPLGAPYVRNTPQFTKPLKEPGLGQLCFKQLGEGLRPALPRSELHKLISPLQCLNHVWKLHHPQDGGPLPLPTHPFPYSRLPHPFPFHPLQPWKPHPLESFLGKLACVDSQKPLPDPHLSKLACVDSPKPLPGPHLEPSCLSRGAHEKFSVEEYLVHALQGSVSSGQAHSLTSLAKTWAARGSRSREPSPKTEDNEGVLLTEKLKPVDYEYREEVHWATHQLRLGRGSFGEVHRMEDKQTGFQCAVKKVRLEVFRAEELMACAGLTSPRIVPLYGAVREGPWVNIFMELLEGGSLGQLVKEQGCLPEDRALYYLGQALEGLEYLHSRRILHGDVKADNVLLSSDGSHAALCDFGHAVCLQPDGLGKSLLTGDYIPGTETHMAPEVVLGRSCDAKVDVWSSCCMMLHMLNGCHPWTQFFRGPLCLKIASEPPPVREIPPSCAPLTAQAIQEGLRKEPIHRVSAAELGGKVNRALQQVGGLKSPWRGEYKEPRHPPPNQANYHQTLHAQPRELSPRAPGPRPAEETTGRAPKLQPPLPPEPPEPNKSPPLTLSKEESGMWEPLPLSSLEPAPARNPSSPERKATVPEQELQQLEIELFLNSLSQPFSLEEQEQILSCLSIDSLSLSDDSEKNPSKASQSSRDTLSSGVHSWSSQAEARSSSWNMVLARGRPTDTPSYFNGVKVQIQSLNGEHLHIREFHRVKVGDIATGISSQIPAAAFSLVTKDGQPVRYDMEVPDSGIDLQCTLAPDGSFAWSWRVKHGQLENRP

SMILES	IC50 [1] [nM]	IC50 [2] [nM]
COc1cc(-c2cc(-c3cc([C@]4(O)CCN(C)C4=O)on3)ccc2F)nc2c(N)ncnc12 [Example 120, (R)-3-(3-(3-(4-Amino-8-methoxypyrido[3,2-d]pyrimidin-6-yl)-4-fluorophenyl)isoxazol-5-yl)-3-hydroxy-1-methylpyrrolidin-2-one]	< 100	> 501
CN1CC[C@@](O)(c2cc(-c3cccc(-c4ncnc5sccc45)c3)no2)C1=O [Example 72, (R)-3-Hydroxy-1-methyl-3-(3-(3-(thieno[2,3-d]pyrimidin-4-yl)phenyl)isoxazol-5-yl)pyrrolidin-2-one]	> 501	> 501
CN1CC[C@@](O)(c2cc(-c3cccc(-c4ccc(N)c(C(N)=O)n4)c3)no2)C1=O [Example 7, (R)-3-Amino-6-(3-(5-(3-hydroxy-1-methyl-2-oxopyrrolidin-3-yl)isoxazol-3-yl)phenyl)picolinamide]	< 100	< 100
CN1CC[C@@](O)(c2cc(-c3cccc(-c4c[nH]c5nccnc45)c3)no2)C1=O [Example 163, (R)-3-(3-(3-(5H-Pyrrolo[2,3-b]pyrazin-7-yl)phenyl)isoxazol-5-yl)-3-hydroxy-1-methylpyrrolidin-2-one]	< 100	> 501
CN1CC[C@@](O)(c2cc(-c3cccc(-c4ncc5cn[nH]c5n4)c3)no2)C1=O [Example 226, (R)-3-(3-(3-(1H-Pyrazolo[3,4-d]pyrimidin-6-yl)phenyl)isoxazol-5-yl)-3-hydroxy-1-methylpyrrolidin-2-one]	> 501	> 501
[2H]c1nc(N)c2nc(-c3cccc(-c4n[nH]c([C@]5(O)CCN(C)C5=O)n4)c3)ccc2n1 (single isomer, unassigned) [Example 34]	> 501	> 501
CN1CC[C@@](O)(c2cc(-c3cccc(-c4ncc(N[C@H]5CCOC5)c(C(N)=O)n4)c3)no2)C1=O [Example 127, 2-(3-(5-((R)-3-hydroxy-1-methyl-2-oxopyrrolidin-3-yl)isoxazol-3-yl)phenyl)-5-(((S)-tetrahydrofuran-3-yl)amino)pyrimidine-4-carboxamide]	< 100	< 100
CN1CC[C@@](O)(c2cc(-c3cccc(-c4ncc(C(N)=O)s4)c3)no2)C1=O [Example 212, (R)-2-(3-(5-(3-hydroxy-1-methyl-2-oxopyrrolidin-3-yl)isoxazol-3-yl)phenyl)thiazole-5-carboxamide]	> 501	> 501
CN1CC[C@@](O)(c2cc(-c3cccc(-c4cn5ccnc5cn4)c3)no2)C1=O [Example 70, (R)-3-Hydroxy-3-(3-(3-(imidazo[1,2-a]pyrazin-6-yl)phenyl)isoxazol-5-yl)-1-methylpyrrolidin-2-one]	> 501	> 501
[2H]c1nc(N)c2nc(-c3cccc(-n4cc([C@]5(O)CCN(C)C5=O)nn4)c3)ccc2n1 [Example 35, (R)-3-(1-(3-(4-Aminopyrido[3,2-d]pyrimidin-6-yl-2-d)phenyl)-1H-1,2,3-triazol-4-yl)-3-hydroxy-1-methylpyrrolidin-2-one]	< 100	> 501
Cc1sc(-c2cccc(-c3cc([C@]4(O)CCN(C)C4=O)on3)c2)nc1C(N)=O [Example 217, (R)-2-(3-(5-(3-Hydroxy-1-methyl-2-oxopyrrolidin-3-yl)isoxazol-3-yl)phenyl)-5-methylthiazole-4-carboxamide]	< 100	100 to 500
CN1CC[C@@](O)(c2cc(-c3cccc(-c4nc(C(N)=O)c(CN)s4)c3)no2)C1=O [Example 237, (R)-5-(Aminomethyl)-2-(3-(5-(3-hydroxy-1-methyl-2-oxopyrrolidin-3-yl)isoxazol-3-yl)phenyl)thiazole-4-carboxamide]	< 100	> 501
Cc1ccc(-c2cccc(C(N)=O)n2)cc1-c1cc([C@]2(O)CCN(C)C2=O)on1 [Example 150, (R)-6-(3-(5-(3-Hydroxy-1-methyl-2-oxopyrrolidin-3-yl)isoxazol-3-yl)-4-methylphenyl)picolinamide]	> 501	> 501
COc1nc(-c2cccc(-c3cc([C@]4(O)CCN(C)C4=O)on3)c2)nc(OC)c1N [Example 136, (R)-3-(3-(3-(5-Amino-4,6-dimethoxypyrimidin-2-yl)phenyl)isoxazol-5-yl)-3-hydroxy-1-methylpyrrolidin-2-one]	100 to 500	> 501
CC(C)c1sc(-c2cccc(-c3cc([C@]4(O)CCN(C)C4=O)on3)c2)nc1C(N)=O [Example 219, (R)-2-(3-(5-(3-Hydroxy-1-methyl-2-oxopyrrolidin-3-yl)isoxazol-3-yl)phenyl)-5-isopropylthiazole-4-carboxamide]	< 100	> 501
CN1CCC(O)(c2cc(-c3cccc(Nc4nc5c(N)ncnc5s4)c3)on2)C1=O (racemic) [Example 176, (R,S)-3-(5-(3-((7-Aminothiazolo[5,4-d]pyrimidin-2-yl)amino)phenyl)isoxazol-3-yl)-3-hydroxy-1-methylpyrrolidin-2-one]	> 501	> 501
Cc1c(-c2cccc(-c3cc([C@]4(O)CCN(C)C4=O)on3)c2)nc(C(N)=O)n1C1CC1 [Example 122, (R)-1-Cyclopropyl-4-(3-(5-(3-hydroxy-1-methyl-2-oxopyrrolidin-3-yl)isoxazol-3-yl)phenyl)-5-methyl-1H-imidazole-2-carboxamide]	100 to 500	> 501
CN1CC[C@@](O)(c2cc(-c3cccc(-c4ccc5c(cnn5C)n4)c3)no2)C1=O [Example 229, (R)-3-Hydroxy-1-methyl-3-(3-(3-(1-methyl-1H-pyrazolo[4,3-b]pyridin-5-yl)phenyl)isoxazol-5-yl)pyrrolidin-2-one]	> 501	> 501
CN1CC[C@@](O)(c2cc(-c3cccc(-c4nc(C(N)=O)c(Br)s4)c3)no2)C1=O [Example 215, (R)-5-Bromo-2-(3-(5-(3-hydroxy-1-methyl-2-oxopyrrolidin-3-yl)isoxazol-3-yl)phenyl)thiazole-4-carboxamide]	< 100	> 501
CN1CC[C@@](O)(c2cc(-c3cccc(-c4nc(Nc5ccn(C)n5)c(C(F)(F)F)c(C(N)=O)n4)c3)no2)C1=O [Example 133, (R)-2-(3-(5-(3-Hydroxy-1-methyl-2-oxopyrrolidin-3-yl)isoxazol-3-yl)phenyl)-6-((1-methyl-1H-pyrazol-3-yl)amino)-5-(trifluoromethyl)pyrimidine-4-carboxamide]	< 100	> 501
CN1CC[C@@](O)(c2cc(-c3cc(-c4cc(C5CC5)c(N)c(C(N)=O)n4)ccc3F)no2)C1=O [Example 244, (R)-3-Amino-4-cyclopropyl-6-(4-fluoro-3-(5-(3-hydroxy-1-methyl-2-oxopyrrolidin-3-yl)isoxazol-3-yl)phenyl)picolinamide]	< 100	> 501
CN1CC[C@@](O)(c2cc(-c3cccc(-c4nc(C(N)=O)c(Nc5cnn(C)c5)s4)c3)no2)C1=O [Example 211, (R)-2-(3-(5-(3-Hydroxy-1-methyl-2-oxopyrrolidin-3-yl)isoxazol-3-yl)phenyl)-5-((1-methyl-1H-pyrazol-4-yl)amino)thiazole-4-carboxamide]	< 100	< 100
